Results taken from US20200337993A1, “INTRACANALICULAR HYDROGEL INSERTS FOR THE DELIVERY OF ANESTHETICS” (Ocular Therapeutix, Inc., priority 2019, published 2020).
Read-outs that look alike come from different tables or passages of the source.

Assays:
[1] = In vitro release of bupivacaine from the Inventive Composition in PBS, pH 7.4 at 37° C.; format: physicochemical
[2] = Bupivacaine concentrations in tear fluid after intracanalicular administration (LC/MS of Schirmer strip samples); format: in vivo, beagle dogs; conditions: female, beagle, dog, other: intracanalicular, 160 μg; for concentration at 2 day: Day 2, N=3, intracanalicular Inventive Composition insert; for concentration at 3 day: Day 3, N=6, intracanalicular Inventive Composition insert; for concentration at 4 day: Day 4, N=6, intracanalicular Inventive Composition insert; for concentration at 5 day: Day 5, N=3, intracanalicular Inventive Composition insert
Procedure: Corneal wounds were created in both eyes (OU) of ten female beagle dogs on Day 0 using epithelial debridement. Animals were post-operatively monitored and treated with eye drops. The Inventive Composition (IC) containing approximately 160 μg of bupivacaine was inserted into the lower or upper lid punctum of one eye of all ten dogs on Day 0 after corneal wounding and removed on Day 7 after wounding. Clinical ophthalmic examinations (slit-lamp biomicroscopy) were conducted daily on weekdays through Day 7. Fluorescein staining was performed and slit-lamp photographs were taken on Days 0, 3, 5, and 7 (Group 1) or on Days 0, 2, 4, and 7 (Group 2). Corneal esthesiometry was performed at baseline and on Days 0, 3-7, 10-14, 31-35, and 38-42 (Group 1) or on Days 0-4, 7-11, 14, 28-32, and 35-39 (Group 2). General health observations and gross ocular observations were performed daily from Day 1 through Day 11 (Group 1) or Day 8 (Group 2). Body weights were recorded prior to dosing and on Day 7. Tears were collected on Days 3, 4, and 5 (Group 1) or on Days 1, 2, 3, and 4 (Group 2). The two groups were staggered in order to collect tear film samples on days 1, 2, 3, 4 and 5 using Schirmer test strips. Tear film samples were collected in the morning prior to administration of drops, in order to avoid dilution of the samples. Pre and post weights were collected on the tear film strips, and samples were sent to PharmOptima, LLC (Portage, Mich.) for bioanalysis via LC/MS. The PK portion of the study measured concentrations of bupivacaine released from the Inventive Composition into the tear fluid over 5 days following intracanalicular administration in beagle dogs and results are presented in Table 3. Tear fluid samples were collected pre-drop administration to prevent dilution of the bupivacaine concentrations. The PK profile indicates elevated concentrations of bupivacaine in the tear fluid through 4 days with a decrease observed at 5 days.

[3] = read-out: Bupivacaine concentration in tear fluid, Average
[4] = read-out: Bupivacaine concentration in tear fluid, Maximum
[5] = read-out: Bupivacaine concentration in tear fluid, Median
[6] = read-out: Bupivacaine concentration in tear fluid, Minimum

CCCCN1CCCCC1C(=O)Nc1c(C)cccc1C (stereo not shown) [Bupivacaine, bupivacaine]
Bupivacaine Release Rate ([1]; in vitro sampling period 0-1 hours (burst phase)): 14.6 µg/h | Bupivacaine Release Rate ([1]; in vitro sampling period 1-18 hours): 3.4 µg/h | Bupivacaine Release Rate ([1]; in vitro sampling period 18-26 hours): 1.5 µg/h | Bupivacaine Release Rate ([1]; in vitro sampling period 26-42 hours): 1.1 µg/h | Bupivacaine Release Rate ([1]; in vitro sampling period 42-68 hours): 1.0 µg/h | Bupivacaine Release Rate ([1]; in vitro sampling period 68-93 hours): 0.6 µg/h | Bupivacaine Release Rate ([1]; in vitro sampling period 93-115 hours): 0.4 µg/h | Bupivacaine Release Rate ([1]; in vitro sampling period 115-168 hours): 0.1 µg/h | concentration at 1 day ([2]; Day 1, N=3, intracanalicular Inventive Composition insert (approx. 160 μg bupivacaine), Groups 1 and 2, read-out: Bupivacaine concentration in tear fluid, Average): 780 ng/mL | concentration at 1 day ([2]; Day 1, N=3, intracanalicular Inventive Composition insert, read-out: Bupivacaine concentration in tear fluid, Maximum): 1520 ng/mL | concentration at 1 day ([2]; Day 1, N=3, intracanalicular Inventive Composition insert, read-out: Bupivacaine concentration in tear fluid, Median): 550 ng/mL | concentration at 1 day ([2]; Day 1, N=3, intracanalicular Inventive Composition insert, read-out: Bupivacaine concentration in tear fluid, Minimum): 280 ng/mL | concentration at 2 day [2, 3]: 380 ng/mL | concentration at 2 day [2, 4]: 770 ng/mL | concentration at 2 day [2, 5]: 230 ng/mL | concentration at 2 day [2, 6]: 150 ng/mL | concentration at 3 day [2, 3]: 740 ng/mL | concentration at 3 day [2, 4]: 1520 ng/mL | concentration at 3 day [2, 5]: 590 ng/mL | concentration at 3 day [2, 6]: 100 ng/mL | concentration at 4 day [2, 3]: 570 ng/mL | concentration at 4 day [2, 4]: 1180 ng/mL | concentration at 4 day [2, 5]: 450 ng/mL | concentration at 4 day [2, 6]: 80 ng/mL | concentration at 5 day [2, 3]: 250 ng/mL | concentration at 5 day [2, 4]: 430 ng/mL | concentration at 5 day [2, 5]: 230 ng/mL | concentration at 5 day [2, 6]: 100 ng/mL
